In PubChem BioAssay (NCI):
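Where inhibition never reached the appropriate level, the endpoint shown equals the highest concentration tested. Otherwise, values were interpolated linearly from a five-concentration, 48-hour dose response in 96-well plates. TGI: total growth inhibition.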

What was measured:
Assay in all cases: NCI tumour cell line growth inhibition, 48 h
COLO 205 colon = tested on: COLO 205 colon
NCI-H23 lung = tested on: NCI-H23 lung
NCI-H522 lung = tested on: NCI-H522 lung
KM12 colon = tested on: KM12 colon
SK-OV-3 ovarian = tested on: SK-OV-3 ovarian
SR leukemia = tested on: SR leukemia
MALME-3M melanoma = tested on: MALME-3M melanoma
RXF 393 renal = tested on: RXF 393 renal
NCI-H460 lung = tested on: NCI-H460 lung
EKVX NSCLC = tested on: EKVX NSCLC
MCF7 breast = tested on: MCF7 breast
DU-145 prostate = tested on: DU-145 prostate
CCRF-CEM leukemia = tested on: CCRF-CEM leukemia
HCT-116 colon = tested on: HCT-116 colon
OVCAR-8 ovarian = tested on: OVCAR-8 ovarian
RPMI-8226 leukemia = tested on: RPMI-8226 leukemia
SK-MEL-28 melanoma = tested on: SK-MEL-28 melanoma
UACC-257 melanoma = tested on: UACC-257 melanoma
SK-MEL-2 melanoma = tested on: SK-MEL-2 melanoma
BT-549 breast = tested on: BT-549 breast
HOP-62 NSCLC = tested on: HOP-62 NSCLC
HS 578T breast = tested on: HS 578T breast
HCT-15 colon = tested on: HCT-15 colon
HL-60(TB) leukemia = tested on: HL-60(TB) leukemia
OVCAR-5 ovarian = tested on: OVCAR-5 ovarian
UO-31 renal = tested on: UO-31 renal
T-47D breast = tested on: T-47D breast
SW-620 colon = tested on: SW-620 colon
K-562 leukemia = tested on: K-562 leukemia
U251 CNS = tested on: U251 CNS
SK-MEL-5 melanoma = tested on: SK-MEL-5 melanoma
MDA-MB-435 = tested on: MDA-MB-435
ACHN renal = tested on: ACHN renal
SF-295 CNS = tested on: SF-295 CNS
CAKI-1 renal = tested on: CAKI-1 renal
SF-268 CNS = tested on: SF-268 CNS
A498 renal = tested on: A498 renal
NCI-H226 lung = tested on: NCI-H226 lung
SF-539 CNS = tested on: SF-539 CNS
UACC-62 melanoma = tested on: UACC-62 melanoma
MDA-MB-231 breast = tested on: MDA-MB-231 breast
HT29 colon = tested on: HT29 colon
SNB-75 CNS = tested on: SNB-75 CNS
HOP-92 NSCLC = tested on: HOP-92 NSCLC
HCC-2998 colon = tested on: HCC-2998 colon
IGROV1 ovarian = tested on: IGROV1 ovarian
PC-3 prostate = tested on: PC-3 prostate
OVCAR-4 ovarian = tested on: OVCAR-4 ovarian
OVCAR-3 ovarian = tested on: OVCAR-3 ovarian
TK-10 renal = tested on: TK-10 renal
MOLT-4 leukemia = tested on: MOLT-4 leukemia
LOX IMVI melanoma = tested on: LOX IMVI melanoma
786-0 renal = tested on: 786-0 renal
NCI/ADR-RES ovarian = tested on: NCI/ADR-RES ovarian
SNB-19 CNS = tested on: SNB-19 CNS
A549 NSCLC = tested on: A549 NSCLC
SN12C renal = tested on: SN12C renal
MDA-N = tested on: MDA-N
M14 melanoma = tested on: M14 melanoma

O=C1CSC(c2ccccc2O)N1c1nc2cc3sc(N4C(=O)CSC4c4ccccc4O)nc3cc2s1 (centres undefined)
TGI (COLO 205 colon): > 100 µM | TGI (NCI-H23 lung): > 100 µM | TGI (NCI-H522 lung): > 100 µM | TGI (KM12 colon): > 100 µM | TGI (SK-OV-3 ovarian): > 100 µM | TGI (SR leukemia): > 100 µM | TGI (MALME-3M melanoma): > 100 µM | TGI (RXF 393 renal): > 100 µM | TGI (NCI-H460 lung): > 33.6 µM | TGI (EKVX NSCLC): > 100 µM | TGI (MCF7 breast): > 100 µM | TGI (DU-145 prostate): > 100 µM | TGI (CCRF-CEM leukemia): > 100 µM | TGI (HCT-116 colon): > 100 µM | TGI (OVCAR-8 ovarian): > 100 µM | TGI (RPMI-8226 leukemia): > 100 µM | TGI (SK-MEL-28 melanoma): > 100 µM | TGI (UACC-257 melanoma): > 77.5 µM | TGI (SK-MEL-2 melanoma): > 100 µM | TGI (BT-549 breast): > 100 µM | TGI (HOP-62 NSCLC): > 100 µM | TGI (HS 578T breast): > 100 µM | TGI (HCT-15 colon): > 100 µM | TGI (HL-60(TB) leukemia): > 100 µM | TGI (OVCAR-5 ovarian): > 100 µM | TGI (UO-31 renal): > 100 µM | TGI (T-47D breast): > 100 µM | TGI (SW-620 colon): > 100 µM | TGI (K-562 leukemia): > 100 µM | TGI (U251 CNS): > 100 µM | TGI (SK-MEL-5 melanoma): > 100 µM | TGI (MDA-MB-435): > 100 µM | TGI (ACHN renal): > 100 µM | TGI (SF-295 CNS): > 100 µM | TGI (CAKI-1 renal): > 100 µM | TGI (SF-268 CNS): > 100 µM | TGI (A498 renal): > 100 µM | TGI (NCI-H226 lung): > 88.1 µM | TGI (SF-539 CNS): > 100 µM | TGI (UACC-62 melanoma): > 100 µM | TGI (MDA-MB-231 breast): > 100 µM | TGI (HT29 colon): > 100 µM | TGI (SNB-75 CNS): > 100 µM | TGI (HOP-92 NSCLC): > 100 µM | TGI (HCC-2998 colon): > 100 µM | TGI (IGROV1 ovarian): > 100 µM | TGI (PC-3 prostate): > 100 µM | TGI (OVCAR-4 ovarian): > 100 µM | TGI (OVCAR-3 ovarian): > 100 µM | TGI (TK-10 renal): > 100 µM | TGI (MOLT-4 leukemia): > 100 µM | TGI (LOX IMVI melanoma): > 100 µM | TGI (786-0 renal): > 100 µM | TGI (NCI/ADR-RES ovarian): > 100 µM | TGI (SNB-19 CNS): > 100 µM | TGI (A549 NSCLC): > 100 µM | TGI (SN12C renal): > 100 µM | TGI (MDA-N): > 100 µM | TGI (M14 melanoma): > 100 µM
